Measured values from PMC11428291, “Peptide and Protein Cysteine Modification Enabled by Hydrosulfuration of Ynamide” (ACS Central Science, 2024).

Legend:
[1] = Water solubility of ynamides (qualitative); assay type: physicochemical; conditions: qualitative statement
Procedure: To this end, N-methylynetoluenesulfonamide (MYTsA, 2a), the first-generation ynamide coupling reagent for peptide synthesis,[39] was tested in our model reaction as a reference. […] Further optimization was performed to implement this chemistry under biocompatible conditions, such as aqueous media, near-neutral pH (6–8), and physiological temperature. In parallel, the poor water-solubility of 2a led to a sluggish reaction in an MeCN/phosphate buffer mixture (pH 8, 3:7), giving 3aa in 80% yield over 24 h. Enhancing the solubility by replacing the methyl group of R^2 with a 2-hydroxyethyl group (2b) led to a more efficient reaction, with an 89% yield of 3ab. […] Substituting the p-toluenesulfonyl (Ts) group of 2a with a trifluoromethylsulfonyl (triflyl, Tf, 2e) group enhanced both the solubility in water and the reaction efficiency due to its stronger electron-withdrawing ability and increased hydrophilicity. This modification facilitated the reaction to completion within 20 min in phosphate buffer with minimal MeCN (5%), yielding the product (3ae) as a single Z-isomer in 95% yield, confirmed by NMR (Z:E > 99:1; see zoom-in ^1H NMR spectra in Figure 2b and details in SI). […] This underscores the versatility of ynamide functionalization via R^2 group modification, promising broad applicability in synthesizing diverse conjugates. […]

[2] = Reaction rate study: hydrosulfuration of glutathione (GSH) to ynamide; conditions: pseudo-first order, ynamide 0.25 mM, GSH 2.5, 5 and 10 mM, 5% MeCN, pH 8.0, 0.2 M PBS, 37 °C, UV-Visible absorbance at 244 nm, triplicate
Procedure: In line with our proposal, the conjugation of the optimal ynamide (2e) and peptide (1a) was sensitive to pH and was sluggish under neutral conditions (pH 6–7.5, Figure S14). […] To further dissect the reaction mechanism, the reaction was carried out in the presence of different types of radical scavengers; no negative effect on the reaction efficacy was observed. In addition, the thiyl radical chemistry of ynamide was examined in aqueous medium, but no reaction was detected (see the SI for details, Schemes S15–S16).
9) Reaction Rate study of the Peptide Conjugates
HO N N OH PBS, pH = 8.0, MeCN, 37 °CHONN OH
Figure S64.Reaction Rate study of the Peptide Conjugates
The reaction between Ynamide (2e) and glutathione (GSH) was measured under pseudo- first order conditions with 10, 20 and 40 equivalents of GSH by real-time monitor of conjugate reactio n using UV-Visible absorbance at 244 nm (max absorbance wavelength for 3me). Solutions were prepared in MeCN (5%), pH 8.0, 0.2 M PBS with Ynamide (0.25 mM) and GSH (2.5 mM, 5 mM and 10 mM). Data was recorded for 2-5 min and performed in triplicate at 37 ℃. The averages of the observed rates (kobs), determined by nonlinear regression analysis of the data points were plotted against the concentration of GSH and the bimolecular rate constant k2, […]
8. Trastuzumab R eduction […]

[3] = assay type: physicochemical; conditions: conjugate 10 μM, 10 mM H2O2 in buffer, pH 4, 8 and 10, 37 °C, 24 h (Figure S59)
Description: (§1) The stability of the conjugated products is of the utmost importance for developing a powerful peptide and protein modification strategy.[6] […] Moreover, the cleavage of 3ae in the presence of external thiol to regenerate the unmodified 1a, which occurred in other methods,[16b],[33a] was not detected in our hands (using 2-mercaptoethanol, Figure S58). In contrast, the iodoacetamide (IAM) peptide conjugate decomposed under the aforementioned conditions (Figures S61–S63).
(§2) Figure S58.Stability of 3ae ( 1mM) in the presence of external thiol
(§3) 4) Stability of 3ae (10 μM) when treated with large excess ((10mM H2O2 in buffer) of
Figure S59.Stability of 3ae ( 10μM) when tr eated with large excess of H 2O2 (at pH 4, […]
7) Stability of iodoacetamide labelling product (10 μM) when treated with large
excess ((10mM H2O2 in buffer)of H 2O2 (at pH 2 and 13 at 37 °C) for 24 h
Figure S62.Stability of iodoacetamide labelling product (10 μM) when treated with
large excess of H2O2 (at pH 2 and 13at 37 °C)
8) Stability of iodoacetamide labelling product (10 μM) when treated with bovine
Figure S63.Stability of iodoacetamide labelling product (10 μM) when treated with […]

[4] = Stability of peptide conjugate in the presence of external thiol (2-mercaptoethanol); assay type: physicochemical; conditions: conjugate 1 mM, pH 8.0 (Figure S58)
Description: as §1
7. Stability Study and Reaction Rate study of the Peptide Conjugates
1) Stability study of the peptide conjugate 3ae
Figure S56.Stability study of the peptide conjugate 3ae
2) Stability of 3ae (1 mM) in buffers at pH 2.0, pH 8.0, pH 10.0, pH 13.0 at 37 °C for
Figure S57.Stability of 3ae ( 1mM) in buffers at pH 2.0, pH 8.0,pH 10.0,pH 13.0
3) Stability of 3ae (1 mM) in the presence of external thiol ( 2- mercaptoethanol)，pH […]
as §2, §3
Figure S59.Stability of 3ae ( 10μM) when tr eated with large excess of H 2O2 (at pH 4,

C#CN(C)S(=O)(=O)c1ccc(C)cc1 [2a, N-methylynetoluenesulfonamide]
Water-solubility [1]: poor

C#CN(CCO)S(=O)(=O)C(F)(F)F [2e]
Solubility in water relative to 2a ([1]; compared with 2a): enhanced | Apparent second-order rate constant for the thiol conjugation (k2, app.) [2]: 0.2399 ± 0.002 M^–1 s^–1

CCOC(=O)[C@H](CS/C=C\N(CCO)S(=O)(=O)C(F)(F)F)NC(=O)[C@H](C)NC(=O)OC(C)(C)C [3ae]
β-syn elimination when treated with a large excess of H2O2 [3]: did not undergo β-syn elimination | Cleavage in the presence of external thiol to regenerate the unmodified 1a [4]: not detected
